According to the supplement of paper PMC10307832:

Experiments:
Assay in all cases: relative viability (nuclei count vs DMSO), 5 days (fraction); higher = more cells survive
[1] = compound: CC1=CC=C(C=C1)C(=O)CN2C3=C(CCCC3)SC2=N [Pifithrin_alpha] + C[C@]1(O)C[C@@H](c2nc(-c3ccc4ccc(-c5ccccc5)nc4c3)c3c(N)nccn32)C1 [Linsitinib] (partner 1 µM)
Outline: (§1)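 Five library-drug doses in √10 steps were combined with a fixed anchor-drug dose, or a single drug was given alone, by pin tool to lung cancer cell lines in 1536-well plates the day after seeding. Nuclei were stained and counted after 5 days. Relative viability is the nuclei count in treated wells over that in vehicle wells, taken as the median of duplicate plates.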

[2] = compound: CC1=CC=C(C=C1)C(=O)CN2C3=C(CCCC3)SC2=N [Pifithrin_alpha] + O=C(c1cc(Cc2n[nH]c(=O)c3ccccc23)ccc1F)N1CCN(C(=O)C2CC2)CC1 [Olaparib] (partner 8 µM)
Outline: as §1

[3] = compound: CC1=CC=C(C=C1)C(=O)CN2C3=C(CCCC3)SC2=N [Pifithrin_alpha] + C[C@@H](Oc1cc(-c2cnn(C3CCNCC3)c2)cnc1N)c1c(Cl)ccc(F)c1Cl [Crizotinib] (partner 1 µM)
Outline: as §1

[4] = compound: CC1=CC=C(C=C1)C(=O)CN2C3=C(CCCC3)SC2=N [Pifithrin_alpha] + Cc1nc(NC(=O)N2CCC[C@H]2C(N)=O)sc1-c1ccnc(C(C)(C)C(F)(F)F)c1 [Alpelisib] (partner 2 µM)
Outline: as §1

Cell Line | relative viability ([1]; first compound 1 µM) | relative viability ([1]; first compound 3.162 µM) | relative viability ([1]; first compound 10 µM) | relative viability ([1]; first compound 31.62 µM) | relative viability ([1]; first compound 100 µM) | relative viability ([2]; first compound 1 µM) | relative viability ([2]; first compound 3.162 µM) | relative viability ([2]; first compound 10 µM) | relative viability ([2]; first compound 31.62 µM) | relative viability ([2]; first compound 100 µM) | relative viability ([3]; first compound 1 µM) | relative viability ([3]; first compound 3.162 µM) | relative viability ([3]; first compound 10 µM) | relative viability ([3]; first compound 31.62 µM) | relative viability ([3]; first compound 100 µM) | relative viability ([4]; first compound 1 µM) | relative viability ([4]; first compound 3.162 µM) | relative viability ([4]; first compound 10 µM) | relative viability ([4]; first compound 31.62 µM) | relative viability ([4]; first compound 100 µM)
201T | 0.956 | 0.792 | 0.744 | 0.689 | 0.731 | 0.843 | 0.891 | 0.601 | 0.564 | 0.619 | 1.04 | 0.902 | 0.862 | 0.808 | 0.765 | 1.04 | 0.83 | 0.792 | 0.81 | 0.79
A549 |  | 0.582 | 0.595 | 0.458 | 0.71 |  | 0.473 | 0.338 | 0.175 | 0.276 | 0.989 | 0.761 | 0.817 | 0.552 | 0.799 | 0.895 | 0.777 | 0.644 | 0.698 | 0.799
A-427 | 1.07 | 1.06 | 1.1 | 0.924 | 1.11 | 0.676 | 0.623 | 0.574 | 0.339 | 0.493 | 1 | 0.85 | 0.857 | 0.574 | 0.932 | 0.756 | 1.04 | 1.03 | 0.836 | 1
ABC-1 | 0.9 | 0.651 | 0.621 | 0.593 | 0.506 |  | 0.774 | 0.557 | 0.405 | 0.477 | 1.09 | 0.999 | 1.22 | 0.817 | 0.597 | 0.945 | 0.983 | 0.732 | 0.682 | 0.661
BEN | 0.991 | 1.11 | 1.01 | 0.929 | 1.29 | 1.01 | 1.13 | 1.01 | 0.562 | 1.01 | 0.878 | 1.03 | 1.05 | 0.84 | 1.34 | 1.01 | 1.19 | 1.14 | 0.965 | 1.22
CAL-12T | 0.877 | 0.702 | 0.819 | 0.718 | 0.702 | 0.706 | 0.631 | 0.535 | 0.46 | 0.574 |  | 0.656 | 0.58 | 0.5 | 0.555 |  | 1.04 | 0.971 | 0.736 | 1.13
COR-L23 | 0.974 | 1.02 | 0.882 |  | 0.871 | 0.262 | 0.306 | 0.267 |  | 0.269 | 0.583 | 0.723 | 0.683 |  | 0.644 | 0.857 | 0.849 | 0.931 |  | 0.663
COR-L 105 | 0.786 | 0.713 | 0.859 | 0.573 | 0.662 | 0.489 | 0.426 | 0.477 | 0.425 | 0.447 | 0.678 | 0.644 | 0.712 | 0.469 | 0.75 | 0.948 | 0.909 | 0.902 | 0.683 | 0.768
Calu-6 | 0.932 | 1.05 | 0.997 |  | 0.848 | 0.534 | 0.536 | 0.46 |  | 0.427 | 0.944 | 0.742 | 0.813 | 0.605 | 0.85 | 0.884 | 0.918 | 0.961 | 0.622 | 0.857
ChaGo-K-1 |  |  |  |  |  | 0.404 | 0.424 | 0.336 | 0.231 | 0.371 | 1.2 | 1.27 | 1.08 | 0.708 | 1.03 |  |  |  |  | 
EBC-1 | 0.912 | 0.878 | 0.861 | 0.561 | 0.576 | 0.621 | 0.552 | 0.348 | 0.298 | 0.363 | 0.187 | 0.21 | 0.168 | 0.16 | 0.152 | 0.821 | 0.834 | 0.683 | 0.558 | 0.602
EKVX | 1.05 | 0.644 | 0.705 | 0.615 | 0.739 | 0.825 | 0.685 | 0.531 | 0.266 | 0.336 | 1.02 | 0.716 | 0.725 | 0.46 | 0.738 | 0.918 | 0.743 | 0.567 | 0.583 | 0.548
EMC-BAC-2 | 0.799 | 0.859 | 0.765 | 0.745 | 0.927 | 0.419 | 0.412 |  | 0.252 | 0.351 | 0.733 | 0.745 | 0.627 | 0.416 | 0.645 | 0.719 | 0.776 | 0.738 | 0.56 | 0.822
EPLC-272H |  | 1.07 | 1.21 | 0.995 | 1.11 | 0.762 | 0.585 | 0.72 | 0.425 | 0.467 |  | 0.921 | 0.805 | 0.601 | 1.05 |  | 0.965 | 0.914 | 0.934 | 1.02
H3255 | 1.02 | 0.969 | 0.919 | 0.672 | 0.962 | 0.603 | 0.562 | 0.53 | 0.44 | 0.485 | 0.762 | 0.948 | 0.826 | 0.469 | 0.656 | 0.587 | 0.739 | 0.692 | 0.403 | 0.593
HARA | 0.988 | 1.02 | 0.9 | 0.542 | 0.857 | 0.659 | 0.931 | 1 | 0.305 | 0.808 | 1.26 | 1.11 | 1.19 | 0.791 | 1.24 | 0.757 | 0.794 | 0.856 | 0.638 | 0.519
HCC-15 | 0.937 | 0.977 | 0.868 | 0.593 | 0.894 | 0.733 | 0.867 | 0.697 | 0.368 | 0.581 | 0.921 | 1.05 | 0.755 | 0.544 | 0.861 | 0.948 | 0.902 | 0.833 | 0.659 | 0.839
